From patent US20090192187A1, “DRY POWDER FORMULATION COMPRISING AN ANTIC[…]” (Chiesi Farmaceutici S.p.A., priority 2008, published 2009)
Structures can show the parent of a compound that is named as a salt.

Tests used:
[1] = Estimation of lung levels after nebulisation; format: in vivo, guinea pig; details: nebulisation with submaximal bronchodilator activity, 2 hours after treatment
[2] = test system: Ach-induced increase in Penh (airway reactivity); test: Bronchodilation activity: barometric plethysmography, acetylcholine challenge after nebulised compound; format: in vivo, guinea pig; details: for bronchoprotective effect: twenty-four hours
Experimental: Airway reactivity is measured using barometric plethysmography (Buxco, USA). Male guinea pigs (500-600 g) are individually placed in plexiglass chambers. After an acclimatisation period, animals are exposed to nebulised saline for 1 minute to obtain airway baseline reading. This is followed by a 1 minute challenge with nebulised acetylcholine (Ach)-2.5 mg/mL. After 60 minutes, 5 minute nebulisation of vehicle or the compound I′ in the range 2.5-250 μM are applied, and Ach challenge is then repeated after 2, 5, 24, 48 and 72 hours (h). Recording of pressure fluctuations in the chambers are taken for 5 minutes after each nebulisation and analysed to calculate Enhanced Pause (Penh). Airway reactivity is expressed as percentage increase in Penh compared with Penh values from the nebulisation of vehicle.

muscarinic receptors = test: Receptor potency and duration of action compared with tiotropium bromide
M2 muscarinic receptors = molecular target: T1, M2 muscarinic receptors (Homo sapiens, UniProt P08172); test: Duration of action / dissociation kinetics at M2 receptors; details: compared with tiotropium bromide
T1 sequence (P08172 1-466): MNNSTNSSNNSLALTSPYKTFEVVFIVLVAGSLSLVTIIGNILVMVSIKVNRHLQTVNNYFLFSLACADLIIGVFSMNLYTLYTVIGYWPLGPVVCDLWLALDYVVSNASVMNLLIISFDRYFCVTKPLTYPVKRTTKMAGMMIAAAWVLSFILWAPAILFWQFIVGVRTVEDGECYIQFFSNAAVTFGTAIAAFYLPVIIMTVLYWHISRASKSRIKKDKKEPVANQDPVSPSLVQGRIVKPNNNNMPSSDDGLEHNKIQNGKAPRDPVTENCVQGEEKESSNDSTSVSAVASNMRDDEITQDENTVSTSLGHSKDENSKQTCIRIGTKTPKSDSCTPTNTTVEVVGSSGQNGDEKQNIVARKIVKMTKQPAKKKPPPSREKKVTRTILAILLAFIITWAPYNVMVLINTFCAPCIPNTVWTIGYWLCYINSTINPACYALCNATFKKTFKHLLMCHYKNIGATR

3-[[[(3-fluorophenyl)[(3,4,5-trifluoro phenyl)methyl]amino]carbonyl]oxy]-1-[2-oxo-2-(2-thienyl)ethyl]-1-azoniabicyclo[2.2.2]octane [compound 1′]
retained dose in the target organ (lung) [1]: about 50 μg/kg | bronchoprotective effect ([2]; 25 μM inhaled): 63.7±15.1% | inhibition ([2]; 50 μM inhaled, 48 hours): 49.2±23.2% | bronchoprotective effect ([2]; 50 μM inhaled): 87.1±8.7% | maximal effect, inhibition of Ach-induced increase in Penh ([2]; 50 μM nebulised, two hours after end of nebulisation): 99.6±0.4 | effect (inhibition of Ach-induced increase in Penh) ([2]; 250 μM inhaled, 48 hours): 83.0±16.1% | residual activity ([2]; 250 μM inhaled, 72 hours): 34.8±20.9% | time-course of the effect (duration of action) ([2]; increasing dose): increasing duration of action with increasing dose | duration of effect ([2]; inhalation of lower concentrations (below 25 μM)): ≤ 5 h | dose dependence of inhibition of Ach-induced increase in Penh ([2]; two hours after end of nebulisation, 2.5-250 μM): dose-dependently inhibited

O=C(C[N+]12CCC(CC1)C(OC(=O)N(Cc1cc(F)c(F)c(F)c1)c1cccc(F)c1)C2)c1cccs1 (stereo not shown) [chloride salt of compound 1, 3-[[[(3-fluorophenyl)[(3,4,5-trifluorophenyl)methyl]amino]carbonyl]oxy]-1-[2-oxo-2-(2-thienyl)ethyl]-1-azoniabicyclo[2.2.2]octane]
duration of action (muscarinic receptors): equieffective to tiotropium bromide | receptor potency (muscarinic receptors): equieffective to tiotropium bromide | duration of action on the M2 receptors (M2 muscarinic receptors): significantly short-acting
